Laboratory results published in PubChem BioAssay AID1919003 (Molecular Pharmacology Branch, DTP, NCI, 2023).

Test system: 786-0 complex spheroids with HUVEC/MSC, growth % test/control
Test: Anticancer human tumor 786-0 cell line growth inhibition [AhR];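 note: compound exposure lasted seven days before the read-out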
Settings: for IC50: curve of first compound; for viability, T/C: stronger effect = lower value
How it was run: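 Complex tumor spheroids co-cultured with HUVEC and human MSC stroma; AhR antagonists tested in combination with standard-of-care and investigational agents. Top concentration at or near clinical Cmax (else 10 microM), half-log dilutions; growth expressed as percent test/control.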

[1] = second compound 0.1 µM, first compound 0.0316 µM
[2] = second compound 0.1 µM, first compound 0.1 µM
[3] = second compound 0.1 µM, first compound 0.316 µM
[4] = second compound 0.1 µM, first compound 1 µM
[5] = second compound 0.1 µM, first compound 3.16 µM
[6] = second compound 0.1 µM, first compound 10 µM
[7] = second compound 0.316 µM, first compound 0.0316 µM
[8] = second compound 0.316 µM, first compound 0.1 µM
[9] = second compound 0.316 µM, first compound 0.316 µM
[10] = second compound 0.316 µM, first compound 1 µM
[11] = second compound 0.316 µM, first compound 3.16 µM
[12] = second compound 0.316 µM, first compound 10 µM
[13] = second compound 1 µM, first compound 0.0316 µM
[14] = second compound 1 µM, first compound 0.1 µM
[15] = second compound 1 µM, first compound 0.316 µM
[16] = second compound 1 µM, first compound 1 µM
[17] = second compound 1 µM, first compound 3.16 µM
[18] = second compound 1 µM, first compound 10 µM
[19] = second compound 3.16 µM, first compound 0.0316 µM
[20] = second compound 3.16 µM, first compound 0.1 µM
[21] = second compound 3.16 µM, first compound 0.316 µM
[22] = second compound 3.16 µM, first compound 1 µM
[23] = second compound 3.16 µM, first compound 3.16 µM
[24] = second compound 3.16 µM, first compound 10 µM
[25] = second compound 10 µM, first compound 0.0316 µM
[26] = second compound 10 µM, first compound 0.1 µM
[27] = second compound 10 µM, first compound 0.316 µM
[28] = second compound 10 µM, first compound 1 µM
[29] = second compound 10 µM, first compound 3.16 µM
[30] = second compound 10 µM, first compound 10 µM

CC1(C)CCC(CN2CCN(c3ccc(C(=O)NS(=O)(=O)c4ccc(NCC5CCOCC5)c([N+](=O)[O-])c4)c(Oc4cnc5[nH]ccc5c4)c3)CC2)=C(c2ccc(Cl)cc2)C1 + Cc1ccccc1N=Nc1ccc(NC(=O)c2ccnn2C)c(C)c1
IC50 (second compound 0.1 µM): > 10 µM
IC50 (second compound 0.316 µM): > 10 µM
IC50 (second compound 1 µM): > 10 µM
IC50 (second compound 3.16 µM): > 10 µM
IC50 (second compound 10 µM): > 10 µM
viability, T/C [1]: 97.2%
viability, T/C [2]: 103%
viability, T/C [3]: 95.2%
viability, T/C [4]: 109%
viability, T/C [5]: 89.5%
viability, T/C [6]: 83.8%
viability, T/C [7]: 109%
viability, T/C [8]: 99%
viability, T/C [9]: 102%
viability, T/C [10]: 106%
viability, T/C [11]: 97.8%
viability, T/C [12]: 77.9%
viability, T/C [13]: 97.5%
viability, T/C [14]: 95.1%
viability, T/C [15]: 96.7%
viability, T/C [16]: 99.4%
viability, T/C [17]: 91.8%
viability, T/C [18]: 80%
viability, T/C [19]: 95.6%
viability, T/C [20]: 96.9%
viability, T/C [21]: 99.2%
viability, T/C [22]: 90.4%
viability, T/C [23]: 77.1%
viability, T/C [24]: 82.9%
viability, T/C [25]: 94.6%
viability, T/C [26]: 96.3%
viability, T/C [27]: 88.3%
viability, T/C [28]: 87.8%
viability, T/C [29]: 75.7%
viability, T/C [30]: 65.5%

CCN(c1cc(-c2ccc(CN3CCOCC3)cc2)cc(C(=O)NCc2c(C)cc(C)[nH]c2=O)c1C)C1CCOCC1 + Cc1ccccc1N=Nc1ccc(NC(=O)c2ccnn2C)c(C)c1
IC50 (second compound 0.1 µM): > 3 µM
IC50 (second compound 0.316 µM): > 3 µM
IC50 (second compound 1 µM): > 3 µM
IC50 (second compound 3.16 µM): > 3 µM
IC50 (second compound 10 µM): > 3 µM
viability, T/C (second compound 0.1 µM, first compound 0.00949 µM): 106%
viability, T/C (second compound 0.1 µM, first compound 0.03 µM): 104%
viability, T/C (second compound 0.1 µM, first compound 0.0949 µM): 98.3%
viability, T/C (second compound 0.1 µM, first compound 0.3 µM): 107%
viability, T/C (second compound 0.1 µM, first compound 0.949 µM): 101%
viability, T/C (second compound 0.1 µM, first compound 3 µM): 110%
viability, T/C (second compound 0.316 µM, first compound 0.00949 µM): 104%
viability, T/C (second compound 0.316 µM, first compound 0.03 µM): 106%
viability, T/C (second compound 0.316 µM, first compound 0.0949 µM): 116%
viability, T/C (second compound 0.316 µM, first compound 0.3 µM): 111%
viability, T/C (second compound 0.316 µM, first compound 0.949 µM): 119%
viability, T/C (second compound 0.316 µM, first compound 3 µM): 118%
viability, T/C (second compound 1 µM, first compound 0.00949 µM): 112%
viability, T/C (second compound 1 µM, first compound 0.03 µM): 106%
viability, T/C (second compound 1 µM, first compound 0.0949 µM): 106%
viability, T/C (second compound 1 µM, first compound 0.3 µM): 97.4%
viability, T/C (second compound 1 µM, first compound 0.949 µM): 102%
viability, T/C (second compound 1 µM, first compound 3 µM): 98.6%
viability, T/C (second compound 3.16 µM, first compound 0.00949 µM): 109%
viability, T/C (second compound 3.16 µM, first compound 0.03 µM): 114%
viability, T/C (second compound 3.16 µM, first compound 0.0949 µM): 102%
viability, T/C (second compound 3.16 µM, first compound 0.3 µM): 93.3%
viability, T/C (second compound 3.16 µM, first compound 0.949 µM): 116%
viability, T/C (second compound 3.16 µM, first compound 3 µM): 94.2%
viability, T/C (second compound 10 µM, first compound 0.00949 µM): 106%
viability, T/C (second compound 10 µM, first compound 0.03 µM): 102%
viability, T/C (second compound 10 µM, first compound 0.0949 µM): 89.2%
viability, T/C (second compound 10 µM, first compound 0.3 µM): 100%
viability, T/C (second compound 10 µM, first compound 0.949 µM): 98.3%
viability, T/C (second compound 10 µM, first compound 3 µM): 103%

COc1cc(Nc2ncc3c(n2)-c2ccc(Cl)cc2C(c2c(F)cccc2OC)=NC3)ccc1C(=O)O + Cc1ccccc1N=Nc1ccc(NC(=O)c2ccnn2C)c(C)c1
IC50 (second compound 0.1 µM): 4.13 µM
IC50 (second compound 0.316 µM): 3.61 µM
IC50 (second compound 1 µM): 3.78 µM
IC50 (second compound 3.16 µM): 4.82 µM
IC50 (second compound 10 µM): 5.41 µM
viability, T/C [1]: 98.7%
viability, T/C [2]: 109%
viability, T/C [3]: 117%
viability, T/C [4]: 84.7%
viability, T/C [5]: 58.3%
viability, T/C [6]: 30.1%
viability, T/C [7]: 107%
viability, T/C [8]: 107%
viability, T/C [9]: 133%
viability, T/C [10]: 91.6%
viability, T/C [11]: 55.1%
viability, T/C [12]: 28.7%
viability, T/C [13]: 108%
viability, T/C [14]: 109%
viability, T/C [15]: 121%
viability, T/C [16]: 89.2%
viability, T/C [17]: 55.5%
viability, T/C [18]: 30.2%
viability, T/C [19]: 95.8%
viability, T/C [20]: 98.4%
viability, T/C [21]: 103%
viability, T/C [22]: 82.3%
viability, T/C [23]: 63.2%
viability, T/C [24]: 29.2%
viability, T/C [25]: 83.3%
viability, T/C [26]: 85.3%
viability, T/C [27]: 106%
viability, T/C [28]: 91.8%
viability, T/C [29]: 60.2%
viability, T/C [30]: 38.2%

Cn1ncnc1C1c2n[nH]c(=O)c3cc(F)cc(c23)NC1c1ccc(F)cc1 (stereo not given) + Cc1ccccc1N=Nc1ccc(NC(=O)c2ccnn2C)c(C)c1
IC50 (second compound 0.1 µM): > 0.1 µM
IC50 (second compound 0.316 µM): > 0.1 µM
IC50 (second compound 1 µM): > 0.1 µM
IC50 (second compound 3.16 µM): > 0.1 µM
IC50 (second compound 10 µM): > 0.1 µM
viability, T/C (second compound 0.1 µM, first compound 0.000316 µM): 104%
viability, T/C (second compound 0.1 µM, first compound 0.001 µM): 102%
viability, T/C (second compound 0.1 µM, first compound 0.00316 µM): 107%
viability, T/C (second compound 0.1 µM, first compound 0.01 µM): 101%
viability, T/C [1]: 101%
viability, T/C [2]: 107%
viability, T/C (second compound 0.316 µM, first compound 0.000316 µM): 103%
viability, T/C (second compound 0.316 µM, first compound 0.001 µM): 106%
viability, T/C (second compound 0.316 µM, first compound 0.00316 µM): 106%
viability, T/C (second compound 0.316 µM, first compound 0.01 µM): 106%
viability, T/C [7]: 110%
viability, T/C [8]: 111%
viability, T/C (second compound 1 µM, first compound 0.000316 µM): 101%
viability, T/C (second compound 1 µM, first compound 0.001 µM): 106%
viability, T/C (second compound 1 µM, first compound 0.00316 µM): 108%
viability, T/C (second compound 1 µM, first compound 0.01 µM): 117%
viability, T/C [13]: 99.7%
viability, T/C [14]: 110%
viability, T/C (second compound 3.16 µM, first compound 0.000316 µM): 92.3%
viability, T/C (second compound 3.16 µM, first compound 0.001 µM): 105%
viability, T/C (second compound 3.16 µM, first compound 0.00316 µM): 92%
viability, T/C (second compound 3.16 µM, first compound 0.01 µM): 94%
viability, T/C [19]: 88.9%
viability, T/C [20]: 91.2%
viability, T/C (second compound 10 µM, first compound 0.000316 µM): 98.6%
viability, T/C (second compound 10 µM, first compound 0.001 µM): 112%
viability, T/C (second compound 10 µM, first compound 0.00316 µM): 90.5%
viability, T/C (second compound 10 µM, first compound 0.01 µM): 93.5%
viability, T/C [25]: 95.3%
viability, T/C [26]: 112%

NS(=O)(=O)OCC1CC(n2ccc3c(NC4CCc5ccccc54)ncnc32)CC1O (stereo not given) + Cc1ccccc1N=Nc1ccc(NC(=O)c2ccnn2C)c(C)c1
IC50 (second compound 0.1 µM): 0.563 µM
IC50 (second compound 0.316 µM): 0.652 µM
IC50 (second compound 1 µM): 0.499 µM
IC50 (second compound 3.16 µM): 0.437 µM
IC50 (second compound 10 µM): 0.374 µM
viability, T/C [1]: 90%
viability, T/C [2]: 78.6%
viability, T/C [3]: 65.5%
viability, T/C [4]: 37%
viability, T/C [5]: 8.68%
viability, T/C [6]: 5.47%
viability, T/C [7]: 87.3%
viability, T/C [8]: 69.5%
viability, T/C [9]: 68.1%
viability, T/C [10]: 42.2%
viability, T/C [11]: 10.6%
viability, T/C [12]: 6.57%
viability, T/C [13]: 88%
viability, T/C [14]: 68%
viability, T/C [15]: 63.2%
viability, T/C [16]: 37.5%
viability, T/C [17]: 9.47%
viability, T/C [18]: 5.05%
viability, T/C [19]: 73.8%
viability, T/C [20]: 65%
viability, T/C [21]: 59.4%
viability, T/C [22]: 29.1%
viability, T/C [23]: 9.11%
viability, T/C [24]: 4.17%
viability, T/C [25]: 76.1%
viability, T/C [26]: 69.5%
viability, T/C [27]: 54.3%
viability, T/C [28]: 27.4%
viability, T/C [29]: 11.3%
viability, T/C [30]: 6.68%
